Measured values taken from US20230172936A1, “VCP/p97 INHIBITOR FOR THE TREATMENT OF CANCER” (Cleave Therapeutics, Inc., priority 2020, published 2023).

Assays:
p97 = p97 (Homo sapiens, UniProt P55072); experiment: P97 inhibition assay (ADP glo); format: biochemical
Protocol: The p97 assay is an assay used to determine inhibitory activity of compounds against the p97 complex. Inhibition of activity of the p97 proteosome complex can enable apoptosis and cause elimination of neoplastic cells (cancer cells). The assay follows that of Christianson in Nat. Cell Biol., (2011) 14:93. The reagents used for the p97 assay include an assay buffer which is a mixture of 50 mM TRIS pH 7.5, 20 mM MgCI˜, 0.02% TX-100, 1 mM DTT and 0.2% (v/v) glycerol. The well plate is a Corning 3674, 384w plate. The identification kit is an ADP glo kit (Promega): stop buffer, detection reagent.
The assay is conducted as follows: • Serial dilute compound in DMSO in a 1:3.33-fold 10 point serial dilution. • In each well of 384w plate add the following reagents: 0.5 μL compound serial diluted in DMSO (Final Conc. 10%) 2 μL ATP (Final Conc.=20 μM, diluted in assay buffer) 2.5 μL p97 (Final Conc.=20 nM, diluted in assay buffer). • Incubate at 37° C. for 15 min. • Add 5 μL of stop buffer, incubate at RT for 40 min. • Add 10 μL of detection reagent, incubate at RT for 30 min. • Read luminescence on Envision plate reader. […]

[1] = test system: 30 passage 1 (P1) models of human acute myeloid leukemia; experiment: Ex-vivo cytotoxicity by Cell Titer Glo, all models; format: cell-based; conditions: 144 h, single agent, 6 days, read-out: IC50s in these models
Protocol: Acute myelogenous leukemia (AML) is the most common acute leukemia in adults. A hematologic cancer, the disease is highly heterogeneous, with multiple subtypes. About 30% of AML cases harbor a FLT3/ITD mutation making the disease highly proliferative and more aggressive with a high risk of relapse.
Triplicate wells with media only and duplicate wells of vehicle (0.2% DMSO) were used as negative controls. […] To measure proliferation, untreated cells at days 0 and 6 were evaluated via Cell Titer Glo.
Protocol: • 1. AML cells were thawed and resuspended in enriched media composed of StemSpan™ Serum-Free Expansion Media (SFEM), 2% heat-inactivated FBS, StemSpan™ CC110 and recombinant human IL-3. • 2. 20,000 cells/well in 100 μL volume were plated on study day 0. • 3. […] Cells were incubated in the presence of drug for 6 days. • 5. On day 6, plates were removed from the incubator and equilibrated to room temperature for 20 minutes. 100 μL/well Cell Titer Glo was added to each well and incubated for 10 minutes before plate reading. • 6. Luminescence was recorded using Tecan Infinite M Plex plate reader.

[2] = test system: human A549 lung adenocarcinoma xenograft tumors; experiment: Tumor growth of A549 xenograft tumors; format: in vivo, mice; conditions: 18 day period
Excerpt: Group 1 received PO 4-days on, 3-days off doses (QD4/3 off) of vehicle.

Chain of p97 (P55072 whole entry): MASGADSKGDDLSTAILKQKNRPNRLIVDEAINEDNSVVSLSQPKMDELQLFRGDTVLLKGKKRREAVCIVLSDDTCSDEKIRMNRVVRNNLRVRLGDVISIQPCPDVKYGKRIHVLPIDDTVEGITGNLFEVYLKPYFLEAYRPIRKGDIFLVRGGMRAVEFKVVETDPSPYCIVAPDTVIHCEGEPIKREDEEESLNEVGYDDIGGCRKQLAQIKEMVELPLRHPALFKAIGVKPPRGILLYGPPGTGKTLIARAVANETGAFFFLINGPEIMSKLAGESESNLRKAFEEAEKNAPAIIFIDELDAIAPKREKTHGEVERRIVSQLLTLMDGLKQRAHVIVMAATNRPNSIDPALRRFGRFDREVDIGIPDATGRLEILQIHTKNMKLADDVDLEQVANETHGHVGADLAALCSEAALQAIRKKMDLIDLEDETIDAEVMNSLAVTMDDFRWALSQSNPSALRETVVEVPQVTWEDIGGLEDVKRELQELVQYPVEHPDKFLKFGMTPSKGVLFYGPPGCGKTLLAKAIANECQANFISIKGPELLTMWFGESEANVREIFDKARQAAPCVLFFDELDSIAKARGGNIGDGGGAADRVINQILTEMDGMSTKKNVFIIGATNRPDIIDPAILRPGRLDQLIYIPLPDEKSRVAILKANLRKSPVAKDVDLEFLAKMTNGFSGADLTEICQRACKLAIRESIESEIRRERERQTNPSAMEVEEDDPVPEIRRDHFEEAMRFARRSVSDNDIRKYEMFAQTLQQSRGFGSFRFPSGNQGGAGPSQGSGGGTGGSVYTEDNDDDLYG

`Cc1cc2c(C(N)=O)cccc2n1-c1nc2c(c(NCc3ccccc3)n1)CCCN2` [Compound 1, 1-(4-(Benzylamino)-5,6,7,8-tetrahydropyrido[2,3-d]pyrimidin-2-yl)-2-methyl-1H-indole-4-carboxamide] showed an IC50 (p97) of under 30 nM, an IC50 [1] of 200 to 800 nM and a TGI ([2]; 100 mg/kg QD4/3 off) of 61%. For the same compound, the “tumor growth inhibition (TGI)” value ([2]; 150 mg/kg BIW, PO) was 20% and the TGI ([2]; 225 mg/kg once weekly (1/W)) was 31%.
